From patent publication US20130158075A1, “HETEROCYCLIC COMPOUNDS AS DGAT1 INHIBITORS” (PIRAMAL ENTERPRISES LIMITED, priority 2010, published 2013)

These compounds were tested against T1, hDGAT1 (Homo sapiens, UniProt O75907) (assay: In-vitro DGAT1 assay with hDGAT1 microsomes from Sf9 cells (14C oleoyl CoA, scintillation counting)). Details: at 1 μM.
T1 construct: made in house; host or cells: Sf9 insect cells (baculovirus); microsomal fraction
T1 sequence (O75907 1-488): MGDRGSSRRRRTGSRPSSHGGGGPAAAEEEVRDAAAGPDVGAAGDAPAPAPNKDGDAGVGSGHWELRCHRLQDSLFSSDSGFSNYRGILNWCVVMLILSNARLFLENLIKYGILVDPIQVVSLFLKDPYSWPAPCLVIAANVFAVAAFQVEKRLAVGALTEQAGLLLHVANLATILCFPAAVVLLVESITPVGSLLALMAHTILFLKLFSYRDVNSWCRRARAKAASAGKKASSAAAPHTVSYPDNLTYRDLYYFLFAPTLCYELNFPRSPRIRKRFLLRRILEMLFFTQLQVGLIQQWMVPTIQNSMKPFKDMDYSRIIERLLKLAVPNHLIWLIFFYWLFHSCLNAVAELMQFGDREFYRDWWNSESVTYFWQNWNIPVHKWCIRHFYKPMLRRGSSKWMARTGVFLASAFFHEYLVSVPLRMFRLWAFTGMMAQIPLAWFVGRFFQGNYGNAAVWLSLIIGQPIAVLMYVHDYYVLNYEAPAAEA
Type: biochemical
In short: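 Radiolabelled triglyceride formation was measured: heptane extracts were scintillation-counted after a 10-min, 37 °C reaction stopped with alkaline ethanol. Enzyme was human DGAT1 in baculovirus-infected Sf9 microsomal membranes; substrates were 14C oleoyl-CoA plus dioleoylglycerol. Runs were duplicated, and inhibition (%) was related to nM compound concentration.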

Row | SMILES | Percentage inhibition of hDGAT1
1 | O=C(O)CCCc1nnc(-c2ccc(NC(=O)c3ccc(-c4ccccc4)cc3)cc2)s1 [Example 290, 4-(5-(4-([1,1′-Biphenyl]-4-ylcarboxamido)phenyl)-1,3,4-thiadiazol-2-yl)butanoic acid] | + (20-50% Inhibition)
2 | O=C(O)CC1CCC(c2ncc(-c3ccc(NC(=O)c4nc(-c5ccccc5)oc4C(F)(F)F)cc3)s2)CC1 (stereo not drawn) [Example 370, 2-(4-(5-(4-(2-Phenyl-5-(trifluoromethyl)oxazole-4-carboxamido)phenyl)thiazol-2-VI)cyclohexyl)acetic acid] | ++ (>50 % Inhibition)

Same assay, conditions: read-out: Percentage inhibition of hDGAT1

Row | SMILES | inhibition at 1 µM
3 | CC(C)(CCc1ncc(-c2ccc(NC(=O)NCc3ccc(C#N)cc3)cc2)s1)C(=O)O [Example 265, 4-(5-(4-(3-(4-Cyanobenzyl)ureido)phenyl)thiazol-2-yl)-2,2-dimethylbutanoic acid] | 20 to 50%
4 | O=C(Nc1ccc(-c2ccn(C3CCC(C(=O)O)CC3)n2)cc1)Nc1cccc(C(F)(F)F)c1 (stereo not drawn) [Example 315, 4-(3-(4-(3-(3-(Trifluoromethyl)phenyl)ureido)phenyl)-1H-pyrazol-1-yl)cyclohexanecarboxylic acid] | 20 to 50%
5 | O=C(O)CC1CCC(c2ncc(-c3ccc(NC(=O)Nc4ccccc4F)cc3)s2)CC1 (stereo not drawn) [Example 348, 2-(4-(5-(4-(3-(2-Fluorophenyl)ureido)phenyl)thiazol-2-yl)cyclohexyl)acetic acid] | > 50%
6 | O=C(O)CC1CCC(c2ncc(-c3ccc(NC(=O)Nc4cc(F)cc(F)c4)cc3)s2)CC1 (stereo not drawn) [Example 356, 2-(4-(5-(4-(3-(3,5-Difluorophenyl)ureido)phenyl)thiazol-2-yl)cyclohexyl)acetic acid] | > 50%
7 | O=C(O)CC1CCC(c2ncc(-c3ccc(NC(=O)Nc4cc(F)c(F)cc4F)cc3)s2)CC1 (stereo not drawn) [Example 358, 2-(4-(5-(4-(3-(2,4,5-Trifluorophenyl)ureido)phenyl)thiazol-2-yl)cyclohexyl)acetic acid] | > 50%
8 | O=C(O)CC1CCC(c2ncc(-c3ccc(NC(=O)Nc4c(F)cc(F)cc4F)cc3)s2)CC1 (stereo not drawn) [Example 360, 2-(4-(5-(4-(3-(2,4,6-Trifluorophenyl)ureido)phenyl)thiazol-2-yl)cyclohexyl)acetic acid] | > 50%
9 | O=C(O)CC1CCC(c2ncc(-c3ccc(NC(=O)Nc4ccc(F)cc4F)cc3)s2)CC1 (stereo not drawn) [Example 362, 2-(4-(5-(4-(3-(2,4-Difluorophenyl)ureido)phenyl)thiazol-2-yl)cyclohexyl)acetic acid] | > 50%
10 | O=C(O)CC1CCC(c2ncc(-c3ccc(NC(=O)c4ccc(Cl)cc4Cl)cc3)s2)CC1 (stereo not drawn) [Example 364, 2-(4-(5-(4-(2,4-Dichlorobenzamido)phenyl)thiazol-2-yl)cyclohexyl)acetic acid] | > 50%
11 | O=C(O)CC1CCC(c2ncc(-c3ccc(NC(=O)c4c(F)cccc4C(F)(F)F)cc3)s2)CC1 (stereo not drawn) [Example 366, 2-(4-(5-(4-(2-Fluoro-6-(trifluoromethyl)benzamido)phenyl)thiazol-2-yl)cyclohexyl)acetic acid] | > 50%
12 | O=C(O)CC1CCC(c2ncc(-c3ccc(NC(=O)Nc4cc(F)c(F)c(F)c4)cc3)s2)CC1 (stereo not drawn) [Example 368, 2-(4-(5-(4-(3-(3,4,5-Trifluorophenyl)ureido)phenyl)thiazol-2-yl)cyclohexyl)acetic acid] | > 50%
13 | Cc1oc(-c2ccccc2)nc1C(=O)Nc1ccc(-c2cnc(C3CCC(CC(=O)O)CC3)s2)cc1 (stereo not drawn) [Example 372, 2-(4-(5-(4-(5-Methyl-2-phenyloxazole-4-carboxamido)phenyl)thiazol-2-yl)cyclohexyl)acetic acid] | > 50%
14 | O=C(O)CC1CCC(c2ncc(-c3ccc(NC(=S)Nc4ccccc4F)cc3)s2)CC1 (stereo not drawn) [Example 374, 2-(4-(5-(4-(3-(2-Fluorophenyl)thioureido)phenyl)thiazol-2-yl)cyclohexyl)acetic acid] | > 50%
15 | Cc1nnc(CC2CCC(c3ncc(-c4ccc(NC(=O)Nc5ccc(F)cc5F)cc4)s3)CC2)o1 (stereo not drawn) [Example 379, 1-(2,4-Difluorophenyl)-3-(4-(2-(4-((5-methyl-1,3,4-oxadiazol-2-yl)methyl)cyclohexyl)thiazol-5-yl)phenyl)urea] | > 50%
16 | Cc1nnc(CC2CCC(c3ncc(-c4ccc(NC(=O)Nc5cc(F)cc(F)c5)cc4)s3)CC2)o1 (stereo not drawn) [Example 381, 1-(3,5-Difluorophenyl)-3-(4-(2-(4-((5-methyl-1,3,4-oxadiazol-2-yl)methyl)cyclohexyl)thiazol-5-yl)phenyl)urea] | > 50%
17 | Cc1nnc(CC2CCC(c3ncc(-c4ccc(NC(=O)Nc5cc(F)c(F)cc5F)cc4)s3)CC2)o1 (stereo not drawn) [Example 382, 1-(4-(2-(4-((5-Methyl-1,3,4-oxadiazol-2-yl)methyl)cyclohexyl)thiazol-5-yl)phenyl)-3-(2,4,5-trifluorophenyl)urea] | > 50%
18 | Cc1nnc(CC2CCC(c3ncc(-c4ccc(NC(=O)Nc5c(F)cc(F)cc5F)cc4)s3)CC2)o1 (stereo not drawn) [Example 383, 1-(4-(2-(4-((5-Methyl-1,3,4-oxadiazol-2-yl)methyl)cyclohexyl)thiazol-5-yl)phenyl)-3-(2,4,6-trifluorophenyl)urea] | > 50%
19 | Cc1nnc(CC2CCC(c3ncc(-c4ccc(NC(=O)c5c(F)cccc5F)cc4)s3)CC2)o1 (stereo not drawn) [Example 385, 2,6-Difluoro-N-(4-(2-(4-((5-methyl-1,3,4-oxadiazol-2-yl)methyl)cyclohexyl)thiazol-5-yl)phenyl)benzamide] | 20 to 50%
20 | Cc1noc(CC2CCC(c3ncc(-c4ccc(NC(=O)Nc5ccccc5Cl)cc4)s3)CC2)n1 (stereo not drawn) [Example 390, 1-(2-Chlorophenyl)-3-(4-(2-(4-((3-methyl-1,2,4-oxadiazol-5-yl)methyl)cyclohexyl)thiazol-5-yl)phenyl)urea] | > 50%

Continued, values first:

Row | inhibition at 1 µM | SMILES
21 | > 50% | O=C(O)CCCc1nnc(-c2ccc(NC(=O)Nc3cccc(C(F)(F)F)c3)cc2)s1 [Example 278, 4-(5-(4-(3-(3-(Trifluoromethyl)phenyl)ureido)phenyl)-1,3,4-thiadiazol-2-yl)butanoic acid]
22 | > 50% | O=C(O)CCCc1nnc(-c2ccc(NC(=O)Nc3ccccc3Cl)cc2)s1 [Example 280, 4-(5-(4-(3-(2-Chlorophenyl)ureido)phenyl)-1,3,4-thiadiazol-2-yl)butanoic acid]
23 | > 50% | Cc1ccc(NC(=O)Nc2ccc(-c3nnc(CCCC(=O)O)s3)cc2)cc1 [Example 282, 4-(5-(4-(3-(p-Tolyl)ureido)phenyl)-1,3,4-thiadiazol-2-yl)butanoic acid]
24 | > 50% | O=C(O)CCCc1nnc(-c2ccc(NC(=O)Nc3ccc(F)cc3F)cc2)s1 [Example 284, 4-(5-(4-(3-(2,4-Difluorophenyl)ureido)phenyl)-1,3,4-thiadiazol-2-yl)butanoic acid]
25 | > 50% | O=C(O)CCCc1nnc(-c2ccc(NC(=O)Nc3ccc(Cl)cc3Oc3ccccc3)cc2)s1 [Example 286, 4-(5-(4-(3-(4-Chloro-2-phenoxyphenyl)ureido)phenyl)-1,3,4-thiadiazol-2-yl)butanoic acid]
26 | 20 to 50% | CC(C)(C)c1ccc(C(=O)Nc2ccc(-c3nnc(CCCC(=O)O)s3)cc2)cc1 [Example 288, 4-(5-(4-(4-(tert-Butyl)benzamido)phenyl)-1,3,4-thiadiazol-2-yl)butanoic acid]
27 | 20 to 50% | O=C(O)CCCc1nnc(-c2ccc(NC(=O)c3ccc(OC(F)(F)F)cc3)cc2)s1 [Example 292, 4-(5-(4-(4-(Trifluoromethoxy)benzamido)phenyl)-1,3,4-thiadiazol-2-yl)butanoic acid]
28 | 20 to 50% | O=C(O)CCCc1nnc(-c2ccc(NC(=O)Nc3ccccc3Cl)cc2)o1 [Example 296, 4-(5-(4-(3-(2-Chlorophenyl)ureido)phenyl)-1,3,4-oxadiazol-2-yl)butanoic acid]
29 | 20 to 50% | O=C(O)CCCc1nnc(-c2ccc(NC(=O)Nc3ccc(F)cc3F)cc2)o1 [Example 300, 4-(5-(4-(3-(2,4-Difluorophenyl)ureido)phenyl)-1,3,4-oxadiazol-2-yl)butanoic acid]
30 | 20 to 50% | O=C(O)CCCc1nnc(-c2ccc(NC(=O)Nc3cccc(C(F)(F)F)c3)cc2)o1 [Example 302, 4-(5-(4-(3-(3-(Trifluoromethyl)phenyl)ureido)phenyl)-1,3,4-oxadiazol-2-yl)butanoic acid]
31 | > 50% | O=C(O)CCCc1nc(-c2ccc(NC(=O)Nc3ccc(Cl)cc3Oc3ccccc3)cc2)no1 [Example 322, 4-(3-(4-(3-(4-Chloro-2-phenoxyphenyl)ureido)phenyl)-1,2,4-oxadiazol-5-yl) butanoic acid]
32 | > 50% | O=C(O)CC1CCC(c2ncc(-c3ccc(NC(=O)Nc4ccccc4Cl)cc3)s2)CC1 (stereo not drawn) [Example 346, 2-(4-(5-(4-(3-(2-Chlorophenyl)ureido)phenyl)thiazol-2-yl)cyclohexyl)acetic acid]
33 | 20 to 50% | Cc1nnc(CC2CCC(c3ncc(-c4ccc(NC(=O)Nc5ccccc5Cl)cc4)s3)CC2)o1 (stereo not drawn) [Example 380, 1-(2-Chlorophenyl)-3-(4-(2-(4-((5-methyl-1,3,4-oxadiazol-2-yl)methyl)cyclohexyl)thiazol-5-yl)phenyl)urea]
